According to patent publication US9303069B2, “Peptides for treating cancer” (University of Mississippi Medical Center, priority 2014, dated 2016):
Like-named read-outs stand apart in the source and are kept apart here.

Key:
[1] = tested on: BRCA1-IRIS, TrkB, ErbB2, AKT, p-AKT, p-FOXO, Cyclin D1, Bcl-2 and survivin; assay: Expression of growth and survival proteins in HOSE and HOSE/IRIS cells (Western); assay type: cell-based, human; conditions: IRIS peptide 5 μM, cisplatin 10 μM, combination 2.5 μM IRIS peptide + 5 μM cisplatin
Description: HOSE cells overexpressing IRIS show a higher degree of resistance to cisplatin than HOSE cells (compare blue to black line in FIG. 30).

[2] = tested on: SKOV3 tumors; assay: In vivo efficacy on established SKOV3 tumors; set-up: species or system mice; conditions: day 16; cisplatin 5 mg/kg i.p., IRIS peptide 10 mg/kg i.t., every third day, four times
Procedure: Further, to determine whether IRIS peptide could have any efficacy in vivo and/or whether it sensitizes ovarian tumors to low, clinically relevant concentrations of cisplatin, four sets of nude mice (n=6 each) were subcutaneously injected with SKOV3 cells. Ten days later, when tumors were ˜250 mm^3 in volume, one group was treated with controls (i.e. DMSO delivered i.p. and scrambled peptide delivered directly into the tumors, i.t.), a second group was treated with cisplatin (5 mg/kg, delivered i.p.), a third group was treated with IRIS peptide (10 mg/kg, injected i.t.), and a fourth group was treated with both. Treatments were delivered every third day for a total of four times. For the next 16 days, tumors were measured daily with a caliper. Mice were then sacrificed, and their tumors or their remnants were taken.
Efficacy of BRCA1-IRIS inhibitory peptide, in vivo. Six to eight week old female athymic SCID mice were injected subcutaneously with 2.5×10^6 SKOV3 cells in the flank region. Their respective tumor growth was measured with a caliper. When the tumor volume reached 250 mm^3, mice were randomly grouped into four groups. One group (control) was treated with scrambled peptide (10 mg/kg) and DMSO. A second was treated with BRCA1-IRIS inhibitory peptide (10 mg/kg, body weight). […] Change in tumor volume was measured to monitor the efficacy of the treatment. […]

[3] = tested on: BRCA1-IRIS and survivin; assay: IHC of SKOV3 tumors for BRCA1-IRIS and survivin; assay type: in vivo, mice; conditions: SKOV3 tumors after treatment
Description: Isolated tumors were mounted, sectioned and IHC stained for BRCA1-IRIS and survivin. […] It is possible that SKOV3 contain a heterogeneous population of cells that differ in their BRCA1-IRIS expression and thus that the remaining tumors are from those expressing no or low BRCA1-IRIS.
Immunohistochemistry (IHC). Ovarian tissue microarrays comprised of normal, cancer and metastatic tissues were purchased from US Biomax, Inc. Paraffin-embedded tissue sections were de-waxed in xylene and rehydrated in alcohol. Antigen-retrieval for FOXO3a and survivin was performed by heating the slides in citrate buffer (10 μM, pH 6.0) using microwave for 10 minutes. Slides were then cooled to room temperature (RT) and washed with water followed by PBS for 15 minutes each. Antigen-retrieval for BRCA1-IRIS was performed by incubating the slides in pepsin (10 μM) for 20 minutes at 37° C. Endogenous peroxidase activity was suppressed by treating the slides with 3% hydrogen peroxide for 10 minutes. After washing steps slides were incubated for 1 hour at room temperature with antibodies to human FOXO3a (Cell Signaling Technology, USA 1:400) and survivin (Cell Signaling Technology, USA 1:400). For BRCA1-IRIS staining, slides were incubated overnight at 4° C. with monoclonal BRCA1-IRIS antibody at a 1:75 dilution. […]

[4] = tested on: BRCA1-IRIS; assay: BRCA1-IRIS expression in ovarian cells (Western analysis); assay type: cell-based, human; conditions: 10, 20 or 30 μM of cisplatin for 24 hours
Description: At these low concentrations of cisplatin BRCA1-IRIS expression was induced in HOSE cells and remained high in HOSE/IRIS cells (FIG. 17). […] Cell lines expressing the lowest levels of BRCA1-IRIS (i.e.

[5] = tested on: SKOV3 cells; assay type: cell-based, human; conditions: then cisplatin 24 hours, read-out: IC50 of cisplatin (survival)
Procedure: Thus, a peptide (hereafter IRIS peptide) composed of a cell/nucleus penetrating signal (FIG. 26) fused to BRCA1-IRIS intron 11 (FIG. 26) was synthesized. Equal numbers of HOSE, HOSE/IRIS, SKOV3, OVCAR3, OVCAR420 and OV-90 cells were grown in the presence of increasing concentrations of IRIS peptide for 48 hours.
To investigate the contribution of ErbB2 and TrkB to BRCA1-IRIS-induced cisplatin resistance, equal numbers of SKOV3 cells were either depleted from BRCA1-IRIS, ErbB2 or TrkB using specific siRNAs for 48 hours before they were (i) exposed to increasing concentrations of cisplatin for another 24 hours or (ii) exposed to IRIS peptide, ErbB2 inhibitor (CP-724714), TrkB inhibitor (K252a) or both for 24 hours, before they were exposed to increasing concentrations of cisplatin for another 24 hours.
Cell viability measurement. Cell viability under different experimental conditions was determined using the MTS assay […]. Briefly, SKOV3, OVACAR3, HOSE and HOSE/IRIS cells (2.5×10^4 cells per well) were seeded in 96 well plates and incubated overnight at 37° C. in 10% humidified CO2 atmosphere in varying concentrations of IRIS peptide, or inhibitors of ErbB2 (CP-724714), EGFR (Erlotinib), TrkB (K252a), JNK (SP600125), p38 (SB203580), ERK (PD98059) and PI3′K/AKT (LY294002) inhibitors for 24 hours at 37° C. Cell Titer 96® Aqueous (Promega, Madison, Wis., USA) was used to measure viability following manufactures instructions. Cell viability (%) was expressed as a ratio to control cells×100. Growth inhibition was also determined by manually counting cells in five different microscopic fields. Change in cell numbers (fold) was expressed as a ratio to control cells×100. All experiments were done in at least triplicates, three different times. * is p≦0.05, ** is p≦0.001 and *** is p≦0.0001.
Transfections of siRNA. siRNAs for human ErbB2 and TrkB were purchased from Ambion and Santa Cruz Biotechnology, USA. Custom synthesized siRNA against BRCA1 IRIS was used. siRNA against luciferase gene was used as the negative control. Sub-confluent cells were transfected in 6- or 96-well plates with ErbB2 (100 nM), TrkB (100 nM), BRCA1 IRIS (200 nM) or control siRNA using Oligofectamine™ reagent (GibcoBRL Inc, USA) following the instructions of the manufacturer. Protein expression was tested by Western blot after 72 hours of siRNA transfection. Cell viability was evaluated by MTS or by manual counting after 72 hours of siRNA exposure alone or in combination with cisplatin exposure (for an additional 24 hours).

N.N.[Cl][Pt][Cl] [cisplatin]
expression of BRCA1-IRIS, TrkB, ErbB2, AKT, p-AKT, p-FOXO, Cyclin D1, Bcl-2 and survivin [1]: increased expression
reduction in tumor size [2]: ~40%
BRCA1-IRIS and survivin staining of remaining tumor [3]: increased IRIS and survivin expression
BRCA1-IRIS expression in HOSE cells [4]: induced
IC50 ([5]; SKOV3, BRCA1-IRIS silencing (siRNA) 48 hours): ~2.5 µM
IC50 ([5]; SKOV3, ErbB2 inhibitor (CP-724714) 24 hours): ~30 µM
IC50 ([5]; SKOV3, IRIS peptide 24 hours): ~7.5 µM
IC50 ([5]; SKOV3, TrkB inhibitor (K252a) 24 hours): ~50 µM
IC50 ([5]; SKOV3, siErbB2 transfected 48 hours): ~7.5 µM
IC50 ([5]; SKOV3, siLuc transfected 48 hours): > 50 µM
IC50 ([5]; SKOV3, siTrkB transfected 48 hours): ~20 µM
IC50 ([5]; SKOV3, vehicle treated 24 hours): > 50 µM
